Publication PMC8541546, “Identification of HLA-A2-Restricted Mutant Epitopes from Neoantigens of Esophageal Squamous Cell Carcinoma” (Vaccines, 2021)

How the values were obtained:
HLA-A*0201 molecule = biological target: T1, HLA-A*0201 molecule (Homo sapiens, UniProt P04439, D140Y/D185E/D98H/E176V/E277Q/G131W/G231S/I119V/I121R/I166T/I218V/L300P/L318F/N151K/N90K/P208A/P217A/Q86G/Q94H/R138H/R169H/T345S); assay: T2A2 cell-binding assay; settings: T2A2 cells; FI = (MFI of peptide - MFI of control without peptide)/MFI of control without peptide; anti-HLA-A2 BB7.2, flow cytometry; FI > 1 = high binding affinity
T1 construct: T2A2 cells (TAP-deficient HLA-A2 molecules overexpressing, cultured in IMDM medium); host or cells: T2A2 cells
Description: The binding affinity of neoepitope to the MHC molecule and the stable neoepitope/MHC complex are critical for inducing T cell immune response, so we first performed a T2A2 cell-binding assay and stabilization assay. The T2A2 cell-binding assay was measured as in our previous study. The binding affinity was computed as follows: fluorescence index (FI) = (mean fluorescence intensity (MFI) of peptide group-MFI of the dissolved buffer without peptide group)/MFI of the dissolved buffer without peptide group.

[1] = biological target: T2, peptide/HLA-A*0201 complex (Homo sapiens, UniProt P04439, D140Y/D185E/D98H/E176V/E277Q/G131W/G231S/I119V/I121R/I166T/I218V/L300P/L318F/N151K/N90K/P208A/P217A/Q86G/Q94H/R138H/R169H/T345S); assay: peptide/MHC complex stabilization assay on T2A2 cells; type: binding; settings: T2A2 cells pulsed with 50 μg/mL peptide and 3 μg/mL β2-M 18 h, BFA 1 h; MFI at 0, 2, 4, 6 h; time of half losing MFI of 0 h
T2 construct: T2A2 cells (TAP-deficient HLA-A2 molecules overexpressing, cultured in IMDM medium); β2-M from Merck; host or cells: T2A2 cells
Description: For the stabilization test, T2A2 cells were pulsed with 50 μg/mL mutant peptide and 3 μg/mL β2-Microglobulin (β2-M, Merck, Kenilworth, NJ, USA) in IMDM (serum-free) medium for 18 h. After three times washing, free peptides were removed and brefeldin A (BFA, 10 μg/mL, BD Bioscience, San Diego, CA, USA) was added. BFA was removed after 1 h impeding, and the cells were incubated for additional time. Finally, T2A2 was marked with anti-human HLA-A2 PE-Cyanine7 for 30 min, then analyzed by FACS Calibur (BD Bioscience, USA). MFI of 0 h was set as 100%, and the time of half losing MFI of 0 h defined the dissociation complex 50 (DC50). DC50 was computed as follows: (MFI of 0 h-MFI of (2, 4, or 6 h))/MFI of 0 h × 100%.

[2] = test system: peptide-pulsed T2A2 cells; assay: IFN-γ intracellular staining of peptide-induced T cells from donor PBMCs; type: cell-based, human; settings: PBMCs of HLA-A2+ donors B–F, DCs pulsed with 10 μg/mL peptide, three rounds
Description: (§1) DCs involve and play an important role in initiating CD8^+ T cell response. Consequently, ten HLA-A2^+ healthy donors’ PBMCs were isolated, autologous DCs were generated, and CTLs were induced according to the procedure described previously. In brief, PBMCs were seeded at a density of 5 × 10^6 cells/well in a 6-well plate, and after 3 h, the non-adherent cells were removed and cryopreserved for future incubation with mature autologous DCs. Differentiation of the adherent cells into dendritic cells was induced by GM-CSF (100 ng/mL, #300-03, PeproTech, Rocky Hill, NJ, USA) and IL-4 (100 ng/mL; #200-04, PeproTech, USA), with replenishment every 2 days. On day 5, maturation of DCs was induced using 100 ng/mL LPS (#L4516, Sigma-Aldrich, St. Louis, MO, USA), and maturation was checked on day 8 by flow cytometry (BD FACSCelesta™) using markers for anti-human HLA-DR, anti-human CD80, and anti-human CD86. Then, mature DCs (1 × 10^5) were pulsed with each 10 μg /mL individual peptide or no peptides (control) for 2 h at 37 °C. Next, peptide-pulsed DCs were used to prime the previously cryopreserved autologous peripheral blood lymphocytes (PBLs) at a DC/PBL ratio of 1:10 using complete RPMI-1640 media supplemented with 100 IU/mL rhIL-2 (#200-02, PeproTech, USA) and 10 ng/mL rhIL-7 (#200-07, PeproTech, USA). Half of the feeding medium was replenished every 2 days. After 7 days, PBLs were restimulated with freshly pulsed autologous DCs every 7 days.
When target cells were peptide-pulsed T2A2 cells (MUT peptide or its corresponding WT peptide), peptide-specific T cells (from HLA-A2^+ healthy donors B–F) stimulated by MUT peptides were co-cultured with these cells in the presence of BFA for 5 h. Then T cells were marked by anti-human CD3 and anti-human CD8α monoclonal antibody. Thirty minutes later, cells were fixed by fixation buffer (Thermo Scientific, Waltham, MA, USA) for thirty minutes and washed by permeabilization buffer (Thermo Scientific, USA). Permeabilized T cells were marked by anti-human IFN-γ monoclonal antibody.

[3] = test system: peptide-pulsed T2A2 cells; assay: Cytotoxicity assay of peptide-induced T cells from donor PBMCs; type: cell-based, human; settings: donors B–F; E/T 12.5:1, 25:1, 50:1; T2A2 loaded with 50 μg/mL peptide
Description: as §1
The cytotoxicity of peptide-specific T cells stimulated by mutant peptides was tested by using Cell Trace Far Red (Thermo Scientific, USA). Transfected cells were suspended in PBS (1 × 10^6 cells/mL) and labelled with Cell Trace Far Red as follows: Control target cells and test target cells were marked by 50 μM and 1 mM Cell Trace Far Red, respectively, at 37 °C for 20 min, protected from light. After incubation, target cells were washed with complete media at 37 °C for 5 min. […] Subsequently, test target cells were mixed with control target cells in a tube, washed once, and analyzed by flow cytometry. Specific lysis (%) = (numbers of control target cells—numbers of test target cells)/numbers of control target cells × 100% [28, 29], where, for tumor cells, the control target cells refer to KYSE140-WT cells marked with 50 μM Cell Trace Far Red, and the test target cell refers to KYSE140-WT or KYSE140-MUT cells marked with 1 mM Cell Trace Far Red, respectively (peptide-specific T cells generated from donors G–K’s PBMCs in vitro or generated from spleen lymphocytes of HLA-A2.1/K^b Tg mice in vivo). Additionally, for T2A2 target cells, T2A2 cells unpulsed and marked with 50 μM Cell Trace Far Red were used as the control target cells, while T2A2 cells loaded with MUT peptides or the corresponding WT peptides (50 μg/mL) or T2A2 cells only were marked with 1 mM Cell Trace Far Red and were used as test target cells (peptide-specific T cells stimulated from donors B–F’s PBMCs).

Sequence	FI (fluorescence index) (HLA-A*0201 molecule)	DC50 (dissociation complex 50) [1]	IFN-γ release of MUT peptide-induced T cells, MUT versus WT peptide-loaded T2A2 cells [2]	lysis cytotoxicity of MUT peptide-induced T cells on T2A2 cells [3]
ALNKMFFQL [TP53-C135F]	0.12	–	–	–
CLRDYQPFL [LRP2-D1744Y]	0.20	–	–	–
FLTATRQEI [DNAH5-M4495T]	0.21	–	–	–
FMNELMDII [DNAH5-D4110N]	0.38	–	–	–
ILQDGFLYV [ABCA13-E1359Q]	1.56	>6 h	cannot effectively distinguish T2A2 cells loaded with WT or MUT peptides	strong cytotoxicity activity
LMSRIPHDV [MUC16-Q5024H]	0.14	–	–	–
RMHDVTTPL [NOTCH1-G1995V]	0.42	–	–	–
SIPSFPLPV [MUC16-S5361F]	2.25	<2 h	–	–
SMGDALDSI [MUC16-A4579D]	1.35	<2 h	–	–
TLTATVNIV [PCDH15-S628L]	0.43	–	–	–
VISDYKYKV [NEB-D3282V]	0.09	–	–	–
VLDDSETTI [MUC16-A9832D]	3.56	>6 h	cannot effectively distinguish T2A2 cells loaded with WT or MUT peptides	strong cytotoxicity activity
YLPDHHEEL [SYNE1-S7628Y]	1.67	<2 h	–	–

Second part, led by results:

FI (fluorescence index) (HLA-A*0201 molecule)	DC50 (dissociation complex 50) [1]	Sequence	IFN-γ release of MUT peptide-induced T cells, MUT versus WT peptide-loaded T2A2 cells [2]	lysis cytotoxicity of MUT peptide-induced T cells on T2A2 cells [3]
0.37	–	ALDMCVKFL [LRP1B-P3707L]	–	–
1.26	>4 h	ALPQHLIRV [TP53-P190L]	cannot effectively distinguish T2A2 cells loaded with WT or MUT peptides	strong cytotoxicity activity
1.27	>6 h	FLIQTEQKL [SYNE1-V7402I]	cannot effectively distinguish T2A2 cells loaded with WT or MUT peptides	strong cytotoxicity activity
0.09	–	GLFQCGTGL [LRP1B-R3362L]	–	–
0.68	–	GLPNDDLYI [DNAH5-S3587Y]	–	–
0.13	–	GMLSPVDFL [NOTCH1-S2202F]	–	–
0.29	–	ILGEEAPRL [KMT2D-F4722L]	–	–
2.12	>6 h	ILIGETIKI [COX-2 321–329, reference compound]	–	–
0.79	–	ILWRQDTDL [NFE2L2-I28T]	–	–
0.08	–	KLLSLLEVL [SYNE1-A65S]	–	–
0.16	–	LLARNSFEV [TP53-G266A]	–	–
0.53	–	LLGRNSFEL [TP53-V272L]	–	–
0.24	–	NLHSINDFL [ABCA13-D1303H]	–	–
1.12	<2 h	QLQAQLQGV [KMT2D-R4198Q]	–	–
0.30	–	RMQRVLSHV [DNAH5-L4406H]	–	–
1.81	<4 h	TILEELNVV [SYNE1-N4342I]	–	–
1.54	<4 h	TMPVVSSEV [MUC17-A2414V]	–	–
0.12	–	TMSERSTLL [MUC17-T3809M]	–	–
0.39	–	YLLTPNGRV [LRP1B-C2479Y]	–	–
0.49	–	YMCNSSCMV [TP53-G244V]	–	–
